Non-standard residues stand in square brackets, D forms with d. Residues, ends and D or L forms follow the SMILES beside them. *: point of attachment. X1 = Cn1c(Br)c(Br)c(Br)c1C(=O)*; NMeL = CN[C@@H](CC(C)C)C(=O)O

The subject of data set [1] is interaction between the programmed cell death protein PD-1 and its natural ligand PDL1. The data set can be described thus: Cell-based assay of PD-1/PDL1 interaction. The note with it: for %Inhibition at 1 × 10^−5 M (PD-1): final readout dependent on the interaction between PD-1 and PDL1; for impairment of PD-1/PDL1 interaction: final readout dependent on the interaction between the two proteins.

Another data set concerns PSN-1. Nature of the data set: Cytotoxic activity against pancreas tumor cell line PSN-1. Type of data set: cell-based. The note with it: PSN-1 (pancreas), human tumor cell line.
Another data set has as its system MDA-MB-231. The data set can be described thus: Cytotoxic activity against breast tumor cell line MDA-MB-231. The format is cell-based. The note with it: MDA-MB-231 (breast), human tumor cell line.
The next data set has as its system A-549. Nature of the data set: Cytotoxic activity against lung tumor cell line A-549. The format is cell-based. The note with it: A-549 (lung), human tumor cell line.
A further data set deals with topoisomerase I. Nature of the data set: Topoisomerase I inhibition. Type of data set: biochemical.
The subject of data set [2] is four cancer cell lines. The data set can be described thus: Cytotoxic activity, four cancer cell lines (summary). Type of data set: cell-based, human. The note with it: four cancer cell lines: A-549, HT-29, MDA-MB-231, PSN-1.
For another data set, the system named is HT-29. Nature of the data set: Cytotoxic activity against colon tumor cell line HT-29. The settings on record: HT-29 (colon), human tumor cell line. The format is cell-based.
Data set [3] relates to four cancer cell lines. The note with it: cited for comparison with 1 and 2; cited from earlier work. The protocol: In summary, two new peptides bearing unprecedented halogenated moieties, haloirciniamide A (1) and seribunamide A (2), were isolated from a marine sponge belonging to the Irnicia genus, which was selected for further studies. The sample was collected around the Thousand Islands (Indonesia) by the Pharmamar expedition team in collaboration with the Research Center for Oceanography, Indonesian Institute of Sciences (RCO-LIPI). The planar structures of the novel compounds were determined by a combination of extensive NMR and HPLC-MS experiments. The absolute configuration was achieved by Marfey’s ...

`CN1C(=O)C[C@H](C(N)=O)NC(=O)[C@@H](O)CNC(=O)[C@H](CNC(=O)c2cc(Br)c(Br)[nH]2)NC(=O)[C@H](CN)NC(=O)C1Cc1cnc(Cl)[nH]1` (stereo partly drawn) [Compound 1, haloirciniamide A]: the “%Inhibition at 1 × 10^−5 M (PD-1)” value in data set [1] came out at 0.3%. Also, the “impairment of PD-1/PDL1 interaction” value in data set [1] is on record as “unable to impair the interaction”. Moreover, the GI50 in the data set with PSN-1, in the data set with MDA-MB-231, in the data set on A-549 and in the data set on HT-29 was above 12 µM in each case. In the data set on topoisomerase I (1 × 10^−5 M), the “%Inhibition at 1 × 10^−5 M (Top-I)” value was 3%. The “inhibition of topoisomerase I” value in the data set on topoisomerase I (1.0 × 10^−5 M) was “no inhibition of the enzyme”. Also, the “cytotoxic activity” value in the data set on four cancer cell lines [2] was “not observed”.

For gunungamide A, the “cytotoxic activity (words, comparison compound gunungamide A)” value in the data set on four cancer cell lines [3] is “not observed”.

Consider `CC[C@H](C)[C@H](NC(=O)c1c(Br)c(Br)c(Br)n1C)C(=O)N(C)[C@@H](CC(C)C)C(=O)N1CCC[C@H]1C(=O)N[C@@H](CCC(N)=O)C(=O)O` [Compound 2, seribunamide A] (X1-I[NMeL]PQ-OH), for which, in data set [1], the “%Inhibition at 1 × 10^−5 M (PD-1)” value was −3.5%. Further, the “impairment of PD-1/PDL1 interaction” value in data set [1] was “unable to impair the interaction”. Also, the GI50 in the data set on PSN-1, with MDA-MB-231, in the data set on A-549 and in the data set on HT-29 was above 12 µM in each case. In the data set on four cancer cell lines [2], the “cytotoxic activity” value was “not observed”.

Turning to cyclocinamide B, the “cytotoxic activity (words, comparison compound cyclocinamide B)” value with four cancer cell lines [3] was “not observed”.

The values above are taken from PMC7460063, “Unique Polyhalogenated Peptides from the Marine Sponge Ircinia sp” (Marine Drugs, 2020).
